{"source": "patent US20070160981A1", "about": "(priority 2005, published 2007)", "key": {"SARS-CoV PLP2 [1]": {"biological_target": "T1, SARS-CoV PLP2 (Severe acute respiratory syndrome coronavirus, UniProt P0C6U8)", "format": "biochemical"}, "SARS-CoV PLP2 [2]": {"biological_target": "T1, SARS-CoV PLP2"}}, "note": "Where two headings read alike, the source gives them in different places.", "data": [{"molecule": "Nc1nc(S)c2[nH]cnc2n1", "note": "[2-amino-6-mercaptopurine]", "values": [{"measurement": "found in the screen for inhibitor of SARS-CoV PLP2", "setting": "SARS-CoV PLP2 [1]", "result": "found"}]}, {"molecule": "Sc1ncnc2nc[nH]c12", "note": "[6-mercaptopurine]", "values": [{"measurement": "found in the screen for inhibitor of SARS-CoV PLP2", "setting": "SARS-CoV PLP2 [1]", "result": "found"}]}, {"molecule": "Cn1cnc([N+](=O)[O-])c1Sc1ncnc2nc[nH]c12", "note": "[Azathioprine]", "values": [{"measurement": "found in the screen for inhibitor of SARS-CoV PLP2", "setting": "SARS-CoV PLP2 [1]", "result": "found"}]}, {"molecule": "[Ca]", "note": "[Ca]", "values": [{"measurement": "effects on the activity of SARS-CoV PLP2", "setting": "SARS-CoV PLP2 [1]", "result": "no effects"}]}, {"molecule": "O=NN(CCCl)C(=O)NCCCl", "note": "[Carmustine]", "values": [{"measurement": "found in the screen for inhibitor of SARS-CoV PLP2", "setting": "SARS-CoV PLP2 [1]", "result": "found"}]}, {"molecule": "[Co]", "note": "[Co]", "values": [{"measurement": "effects on the activity of SARS-CoV PLP2", "setting": "SARS-CoV PLP2 [1]", "result": "no effects"}]}, {"molecule": "S=C([S-])N(Cc1ccccc1)Cc1ccccc1.S=C([S-])N(Cc1ccccc1)Cc1ccccc1.[Zn+2]", "note": "[Dibenzyl dithiocarbamic Zn]", "values": [{"measurement": "inhibition of SARS-CoV PLP2, in words", "setting": "SARS-CoV PLP2 [1]", "result": "effective in inhibiting"}]}, {"molecule": "O=C([O-])c1ccccc1-c1c2cc(Br)c(=O)cc-2oc2[c]([Hg+])c([O-])c(Br)cc12.[Na+].[Na+].[OH-]", "note": "[Merbromin]", "values": [{"measurement": "found in the screen for inhibitor of SARS-CoV PLP2", "setting": "SARS-CoV PLP2 [1]", "result": "found"}]}, {"molecule": "[Mg]", "note": "[Mg]", "values": [{"measurement": "effects on the activity of SARS-CoV PLP2", "setting": "SARS-CoV PLP2 [1]", "result": "no effects"}]}, {"molecule": "[Mn]", "note": "[Mn]", "values": [{"measurement": "effects on the activity of SARS-CoV PLP2", "setting": "SARS-CoV PLP2 [1]", "result": "no effects"}]}, {"molecule": "CCN(C(=S)[S-])c1ccccc1.CCN(C(=S)[S-])c1ccccc1.[Zn+2]", "note": "[N-ethyl-N-phenyldithiocarbamic acid Zn]", "values": [{"measurement": "inhibition of SARS-CoV PLP2, in words", "setting": "SARS-CoV PLP2 [1]", "result": "effective in inhibiting"}]}, {"molecule": "CCN1C(=O)C=CC1=O", "note": "[N-ethylmaleimide]", "values": [{"measurement": "effective in inhibiting SARS-CoV PLP2", "setting": "SARS-CoV PLP2 [1]; 1 mM", "result": "effective"}]}, {"molecule": "[Ni]", "note": "[Ni]", "values": [{"measurement": "effects on the activity of SARS-CoV PLP2", "setting": "SARS-CoV PLP2 [1]", "result": "no effects"}]}, {"molecule": "CN(C)C(=S)SSC(=S)N(C)C", "note": "[Thiram]", "values": [{"measurement": "found in the screen for inhibitor of SARS-CoV PLP2", "setting": "SARS-CoV PLP2 [1]", "result": "found"}]}, {"molecule": "[Zn+2]", "note": "[Zinc ion]", "values": [{"measurement": "IC50", "setting": "SARS-CoV PLP2 [1]", "result": 1300, "unit": "nM"}]}, {"molecule": "CC(C)C[C@H](NC(=O)[C@@H](NC(=O)N[C@@H](Cc1ccccc1)C(=O)O)[C@@H]1CCN=C(N)N1)C(=O)N[C@H](C=O)Cc1ccccc1", "note": "[chymostatin]", "values": [{"measurement": "effective in inhibiting SARS-CoV PLP2", "setting": "SARS-CoV PLP2 [1]; 1 mM", "result": "none of them was effective"}]}, {"molecule": "[O-]n1ccccc1=S.[O-]n1ccccc1=S.[Zn+2]", "note": "[hydroxypridine-2-thione Zn]", "values": [{"measurement": "inhibition of SARS-CoV PLP2, in words", "setting": "SARS-CoV PLP2 [1]", "result": "effective in inhibiting"}]}, {"molecule": "CC(=O)N[C@@H](CC(C)C)C(=O)N[C@@H](CC(C)C)C(=O)N[C@H](C=O)CCCNC(=N)N", "note": "[leupeptin]", "values": [{"measurement": "effective in inhibiting SARS-CoV PLP2", "setting": "SARS-CoV PLP2 [1]; 0.1 mM", "result": "none of them was effective"}]}, {"molecule": "FRLKGGAPI [FRLKGG-API]", "values": [{"measurement": "percentage of the cleavage after 2 hours of digestion", "setting": "SARS-CoV PLP2 [2]", "result": 36, "unit": "%"}, {"measurement": "percentage of the cleavage after 12 hours of digestion", "setting": "SARS-CoV PLP2 [2]", "result": 85, "unit": "%"}, {"measurement": "Cleavage % 2 hours", "setting": "SARS-CoV PLP2 [2]; pH 6.8", "result": "36.2 ± 6.4", "unit": "%"}, {"measurement": "Cleavage % 12 hours", "setting": "SARS-CoV PLP2 [2]; pH 6.8", "result": "85.1 ± 4.9", "unit": "%"}]}, {"molecule": "FRLKGGAPIK [FRLKGG-APIK]", "values": [{"measurement": "percentage of the cleavage after 2 hours of digestion", "setting": "SARS-CoV PLP2 [2]", "result": 50, "unit": "%"}, {"measurement": "percentage of the cleavage after 12 hours of digestion", "setting": "SARS-CoV PLP2 [2]", "result": 100, "unit": "%"}, {"measurement": "Cleavage % 2 hours", "setting": "SARS-CoV PLP2 [2]; pH 6.8", "result": "49.9 ± 2.6", "unit": "%"}, {"measurement": "Cleavage % 12 hours", "setting": "SARS-CoV PLP2 [2]; pH 6.8", "result": "100 ± 0.0", "unit": "%"}]}, {"molecule": "FRLKGGAPIKGV", "values": [{"measurement": "Cleavage % 2 h", "setting": "SARS-CoV PLP2 [2]", "result": "70.1 ± 7.4", "unit": "%"}, {"measurement": "Cleavage % 2 hours", "setting": "SARS-CoV PLP2 [2]", "result": "70 ± 7", "unit": "%"}, {"measurement": "Cleavage % 12 h", "setting": "SARS-CoV PLP2 [2]", "result": "100 ± 0.0", "unit": "%"}, {"measurement": "Cleavage % 12 hours", "setting": "SARS-CoV PLP2 [2]", "result": 100, "unit": "%"}, {"measurement": "percentage of the cleavage after 2 hours of digestion", "setting": "SARS-CoV PLP2 [2]", "result": 70, "unit": "%"}, {"measurement": "percentage of the cleavage after 12 hours of digestion", "setting": "SARS-CoV PLP2 [2]", "result": 100, "unit": "%"}, {"measurement": "Cleavage % 2 hours", "setting": "SARS-CoV PLP2 [2]; pH 6.8", "result": "70.1 ± 7.4", "unit": "%"}, {"measurement": "Cleavage % 12 hours", "setting": "SARS-CoV PLP2 [2]; pH 6.8", "result": "100 ± 0.0", "unit": "%"}]}, {"molecule": "ISLKGGKIVSTC [Gly2740-Lys2741]", "values": [{"measurement": "Cleavage % 2 hours", "setting": "SARS-CoV PLP2 [2]", "result": "7 ± 1", "unit": "%"}, {"measurement": "Cleavage % 12 hours", "setting": "SARS-CoV PLP2 [2]", "result": "29 ± 4", "unit": "%"}, {"measurement": "percentage of the cleavage after 2 hours of digestion", "setting": "SARS-CoV PLP2 [2]", "result": 7, "unit": "%"}, {"measurement": "percentage of the cleavage after 12 hours of digestion", "setting": "SARS-CoV PLP2 [2]", "result": 29, "unit": "%"}]}, {"molecule": "LKGGAPIK", "values": [{"measurement": "percentage of the cleavage after 2 hours of digestion", "setting": "SARS-CoV PLP2 [2]", "result": 11, "unit": "%"}, {"measurement": "percentage of the cleavage after 12 hours of digestion", "setting": "SARS-CoV PLP2 [2]", "result": 45, "unit": "%"}, {"measurement": "Cleavage % 2 hours", "setting": "SARS-CoV PLP2 [2]; pH 6.8", "result": "11.4 ± 4.3", "unit": "%"}, {"measurement": "Cleavage % 12 hours", "setting": "SARS-CoV PLP2 [2]; pH 6.8", "result": "44.7 ± 3.5", "unit": "%"}]}, {"molecule": "NNVFRLKGGAPIKGVTFG [N N V F R L K G G A P I K G V T F G]", "values": [{"measurement": "Cleavage % 2 hours", "setting": "SARS-CoV PLP2 [2]", "result": "60.5 ± 0.7", "unit": "%"}, {"measurement": "Cleavage % 12 hours", "setting": "SARS-CoV PLP2 [2]", "result": "100 ± 0.0", "unit": "%"}]}, {"molecule": "NVFRLKGGAPIKGVTF [N V F R L K G G A P I K G V T F]", "values": [{"measurement": "Cleavage % 2 hours", "setting": "SARS-CoV PLP2 [2]", "result": "63.0 ± 1.4", "unit": "%"}, {"measurement": "Cleavage % 12 hours", "setting": "SARS-CoV PLP2 [2]", "result": "100 ± 0.0", "unit": "%"}]}, {"molecule": "RLKGGAPIKG [RLKGG-APIKG]", "values": [{"measurement": "percentage of the cleavage after 12 hours of digestion", "setting": "SARS-CoV PLP2 [2]", "result": 56, "unit": "%"}, {"measurement": "Cleavage % 2 hours", "setting": "SARS-CoV PLP2 [2]; pH 6.8", "result": "14.8 ± 4.1", "unit": "%"}, {"measurement": "Cleavage % 12 hours", "setting": "SARS-CoV PLP2 [2]; pH 6.8", "result": "56.4 ± 5.6", "unit": "%"}]}, {"molecule": "VFRLKGGAPIK", "values": [{"measurement": "Cleavage % 2 hours", "setting": "SARS-CoV PLP2 [2]; pH 6.8", "result": "52.9 ± 3.5", "unit": "%"}, {"measurement": "Cleavage % 12 hours", "setting": "SARS-CoV PLP2 [2]; pH 6.8", "result": "100 ± 0.0", "unit": "%"}]}, {"molecule": "VFRLKGGAPIKGVT [V F R L K G G A P I K G V T]", "values": [{"measurement": "Cleavage % 2 hours", "setting": "SARS-CoV PLP2 [2]; pH 6.8", "result": "67.6 ± 9.0", "unit": "%"}, {"measurement": "Cleavage % 12 hours", "setting": "SARS-CoV PLP2 [2]; pH 6.8", "result": "100 ± 0.0", "unit": "%"}]}, {"molecule": "cystatin", "values": [{"measurement": "effective in inhibiting SARS-CoV PLP2", "setting": "SARS-CoV PLP2 [1]", "result": "none of them was effective"}]}]}
